Results reported in patent publication US20240382485A1, “METHODS OF TREATING ABNORMAL CELL GROWTH” (Verastem, Inc., priority 2021, published 2024).

Columns and labels:
Assay in all cases: 2D proliferation assay (CellTiter-Glo) with synergy analysis
[1] = system: H358 human non-small cell lung cancer (NSCLC) cells; assay type: cell-based; conditions: for effect of doxycycline or minocycline on anti-tumor potency: 2D culture, 7 days, CellTiter-Glo; for synergy with antibiotics in the inhibition of tumor cell proliferation: with doxycycline or minocycline, H358, FIG. 3, Bliss, Loewe, HSA and ZIP analysis
Method: (§1) Anti-proliferative effects of an antibiotic agent such as doxycycline (e.g., 5 or 10 μM) or minocycline (e.g., 1.25 μM) in combination with VS-6766 (e.g., 40 nM) or defactinib (e.g., 1 μM) were tested in 2D culture in 3 different human tumor cell lines.
(§2) Human cancer cell lines were grown in 2D conditions. Briefly, cells were seeded in 100 μL of growth medium. After an overnight incubation (17-22 hours), cells were treated with VS-6766+/−minocycline or doxycycline for 7 days. Alternatively, cells were treated with defactinib+/−doxycycline for 7 days. Cell viability was measured using the cell viability CellTiter-Glo assay.
Raw data and metadata files were processed with a custom R-script for single agent and combination activity. Bliss, Loewe, Highest Single Agent (HSA) and ZIP synergy analysis were performed to generate a composite synergy score (e.g., see Malyutina A et al, “Drug combination sensitivity scoring facilitates the discovery of synergistic and efficacious drug combinations in cancer,” PLOS Computational Biology 15 (5): e1006752). Summary graphics and reports were saved for visualization and further analysis.
(§3) For example, consider that drug 1 at concentration x1 and drug 2 at concentration x2 were combined to produce the inhibition effect of yc, while their respective single drug effects were y1(x1) and y2(x2). The synergy score was calculated as the difference between yc and the expected effect ye if there is no synergy. Each synergy scoring takes a different model for ye: • 1. HSA: ye is the maximal single drug effect, defining
Dose-response matrices were used to assess anti-proliferative effects of the combination of VS-6766+/−minocycline or doxycycline, and the combination of defactinib+/−doxycycline. […] H358 human non-small cell lung cancer (NSCLC) cells were grown in 2D conditions. Cells were treated with VS-6766+/−minocycline or doxycycline for 7 days. Alternatively, cells were treated with defactinib+/−doxycycline for 7 days. Cell viability was measured using the cell viability CellTiter-Glo assay.
Synergy scores were calculated using a combination of 4 different methods (Bliss, Loewe, HSA and ZIP). Human cancer cell lines were run in a CTG proliferation assay. Raw data and metadata files were processed with a custom R-script for single agent and combination activity. Bliss, Loewe, Highest Single Agent (HSA) and ZIP synergy analysis were performed to generate a composite synergy score. The example used in this figure is VS-6766+doxycycline in H358 cells.
H358 human NSCLC cells were run in a CTG proliferation assay. Raw data and metadata files were processed with a custom R-script for single agent and combination activity. Bliss, Loewe, Highest Single Agent (HSA) and ZIP synergy analysis were performed to generate a composite synergy score. […]

TOV21G ovarian cancer = assay type: cell-based, human; conditions: VS-6766+doxycycline, FIG. 4, Bliss, Loewe, HSA and ZIP analysis
Method: as §1, §2
(§4) Raw data and metadata files were processed with a custom R-script for single agent and combination activity. Bliss, Loewe, Highest Single Agent (HSA) and ZIP synergy analysis were performed to generate a composite synergy score (e.g., see Malyutina A et al, “Drug combination sensitivity scoring facilitates the discovery of synergistic and efficacious drug combinations in cancer,” PLOS Computational Biology 15 (5): e1006752). […]
as §3, with “Each synergy scoring takes a different model for ye: • 1. HSA: ye is the maximal single drug effect, defining” left out

H2122 NSCLC = assay type: cell-based, human; conditions: VS-6766+doxycycline, H2122, FIG. 4; Bliss, Loewe, HSA and ZIP analysis
Method: as §1, §2, §4
as §3, with “Each synergy scoring takes a different model for ye: • 1. HSA: ye is the maximal single drug effect, defining” left out

Compound | effect of doxycycline or minocycline on anti-tumor potency [1] | synergy with antibiotics in the inhibition of tumor cell proliferation [1] | synergy in the inhibition of tumor cell proliferation (TOV21G ovarian cancer) | synergy in the inhibition of tumor cell proliferation (H2122 NSCLC)
CNS(=O)(=O)Nc1nccc(Cc2c(C)c3ccc(Oc4ncccn4)cc3oc2=O)c1F [VS-6766] | increased anti-tumor potency | synergistic | synergistic effect | synergistic effect
CNC(=O)c1ccc(Nc2ncc(C(F)(F)F)c(NCc3nccnc3N(C)S(C)(=O)=O)n2)cc1 [defactinib, reference compound] | increased anti-tumor potency | synergistic | – | –
